“And” between values parts separate entries of the source, which are not always exact repeats. Identical values can stand only once. Like-named read-outs stand apart in the source and are kept apart here.
Tests used:
PANC1 cells [1] = experiment: Cell viability, crystal violet staining; details: read-out: IC50 concentration (± SD) at 48 h, 48 h
Method: (§1) Cell viability was assessed using a crystal violet-based staining method. […] The cells (2 × 10^5) were seeded in 24-multiwell dishes in 0.5 mL of complete medium and incubated overnight. […] After 48 h, cells were fixed with 1% glutaraldehyde (20–30 min), washed with distilled water, and stained with 0.1% crystal violet. […] IC50 were calculated by using GraphPad Prism (version 8.0). Nonlinear regression was used to fit the data to the log (inhibitor) versus response (variable slope).

MKN45 cells [2] = experiment: Cell viability, crystal violet staining; details: read-out: IC50 concentration (± SD) at 48 h, 48 h
Method: as §1

AGS cells [3] = experiment: Cell viability, crystal violet staining; details: read-out: IC50 concentration (± SD) at 48 h, AGS, 48 h
Method: as §1

PANC1 cells [4] = experiment: RT-qPCR gene expression (CDKN1A, IL6, MMP1, MAP2K3, SOD1, SOD2, CAT, MKI67, TNFRSF10D); assay type: cell-based, human
Method: (§2) Total cellular RNA was extracted using Tri-Reagent (Life Technologies), following the manufacturer’s instructions. One μg of total RNA was primed with random primers and cDNA synthesized with an M-MLV reverse transcriptase following the manufacturer’s instructions (Promega). Target genes were amplified using a SYBR Green polymerase chain reaction assay, working with the specific primer sets listed in Table 4.
(§3) Thermal cycling of the qPCR reaction was initiated with a denaturation step at 95 °C for 10 min. The process consisted of 40 cycles (denaturation at 95 °C for 15 sec, annealing at 60 °C for 30 sec, and elongation at 75 °C for 30 sec). PCR amplifications were carried out in a StepOne Real‐time PCR System (Applied Biosystems, 4376357). Relative mRNA levels were calculated by the delta-Ct method (2-ΔΔCt), where each 1-Ct difference equals a two-fold change in transcript abundance, using GAPDH as an endogenous gene reference. ΔΔCT represents the difference between the mean ΔCT value of the cells tested and the mean ΔCT value of the calibrator, both calculated for the same PCR run.

MKN45 cells [5] = experiment: as above; assay type: cell-based, human
Method: as §2, §3

AGS cells [6] = experiment: as above; assay type: cell-based, human
Method: as §2, §3

PANC1 cells [7] = experiment: Clonogenic (CFU) assay after 1, 3, 24 h pre-treatment; assay type: cell-based, human
Method: For the clonogenic assay we used two different approaches. […] Then, cells were cultured in a 6-well plate at a very low concentration (2 × 10^3 cells per well) and incubated for 10 days. […] To evaluate the role of ROS in cell proliferation, we supplemented the growth medium with 0.5 mM NAC. After 10 days, the cells were fixed with 1% glutaraldehyde and stained with 0.1% crystal violet. The number of colonies was quantified directly and reflected as CFUs: Colony Forming Units.

PANC1 cells [8] = experiment: Ratio GSH/GSSG, colorimetric kit; assay type: cell-based, human
Method: (§4) GSH and GSSG levels were determined in AGS and PANC1 cells after 3 and 24 h of treatment with the compounds (using H2O2 as a positive control) with the Glutathione Colorimetric Detection Kit (ThermoFisher) following the manufacturer’s instructions. Thirty minutes after adding the Colorimetric Detection Reagent and the Reaction Mixture, the absorbance was read at 405 nm. A standard curve was generated with each assay to interpolate the sample results. To measure GSSG, standards and samples must be diluted with the Sample Diluent containing 2-vinylpyridine.

AGS cells [9] = experiment: Ratio GSH/GSSG, colorimetric kit; assay type: cell-based, human
Method: as §4

[10] = PANC1, Fig. 3C, replicate values
[11] = MKN45, Fig. 3C, replicate values

Question: How did the IC50 (PANC1 cells [1]; PANC1, NAC (+) 0.5 mM) turn out when [NH2][Pt]([NH2])([Cl])[Cl] [CDDP, cisplatin, reference compound] was run?
Answer: The IC50 was 9.46 ± 1.29 µM.

Question: And the IC50 (PANC1 cells [1]; PANC1, NAC (-))?
Answer: Its IC50 is 10 µM and 12.3 µM.

Question: What about the IC50 (MKN45 cells [2]; MKN45, NAC (+) 0.5 mM) of the same compound?
Answer: The IC50 was 10.2 ± 1.56 µM.

Question: And the IC50 (MKN45 cells [2]; MKN45, NAC (-))?
Answer: The IC50 was 10 µM and 9.45 µM.

Question: What about the IC50 (AGS cells [3]; NAC (+) 0.5 mM) of the same compound?
Answer: The IC50 was 22.7 ± 4.03 µM.

Question: And the IC50 (AGS cells [3]; NAC (-))?
Answer: The IC50 was 26.7 ± 2.21 µM.

Question: And the “MKI67 Fold change vs GAPDH” value (PANC1 cells [4]; PANC1, Fig. S4C)?
Answer: The value was 0.584 fold change and 0.4541 fold change and 0.7511 fold change.

Question: And the “TNFRSF10D Fold change vs GAPDH” value (PANC1 cells [4]; PANC1, Fig. S4C)?
Answer: The value was 2.899 fold change and 2.5476 fold change and 3.299 fold change.

Question: And the “CAT (Fold change vs GAPDH)” value (PANC1 cells [4]; PANC1, mRNA vs Control = 1)?
Answer: Its value is 0.9643 Fold change and 0.7898 Fold change and 1.177 Fold change.

Question: What about the “SOD1 (Fold change vs GAPDH)” value (PANC1 cells [4]; PANC1, mRNA vs Control = 1) of the same compound?
Answer: Its value is 1.201 Fold change and 1.761 Fold change and 1.789 Fold change.

Question: And the “SOD2 (Fold change vs GAPDH)” value (PANC1 cells [4]; PANC1, mRNA vs Control = 1)?
Answer: The value was 0.4267 Fold change and 0.395 Fold change and 0.4609 Fold change.

Question: And the “CDKN1A, Fold change vs GAPDH” value (PANC1 cells [4]; [10])?
Answer: Its value is 2.689 fold change and 2.397 fold change and 3.018 fold change.

Question: And the “IL-6, Fold change vs GAPDH” value (PANC1 cells [4]; [10])?
Answer: Its value is 6.723 fold change and 5.78 fold change and 7.821 fold change.

Question: And the “MMP-1, Fold change vs GAPDH” value (PANC1 cells [4]; [10])?
Answer: The value was 3.584 fold change and 2.804 fold change and 4.175 fold change.

Question: And the “Fold change MAP2K3 vs GAPDH” value (PANC1 cells [4]; PANC1, Fig. 4B, replicate values)?
Answer: Its value is 2.138 fold change and 1.804 fold change and 2.534 fold change.

Question: And the “MKI67 Fold change vs GAPDH” value (MKN45 cells [5]; MKN45, Fig. S4C)?
Answer: Its value is 0.592 fold change and 0.4427 fold change and 0.7916 fold change.

Question: What about the “TNFRSF10D Fold change vs GAPDH” value (MKN45 cells [5]; MKN45, Fig. S4C) of the same compound?
Answer: Its value is 0.5932 fold change and 0.4461 fold change and 0.7888 fold change.

Question: What about the “CAT (Fold change vs GAPDH)” value (MKN45 cells [5]; MKN45, mRNA vs Control = 1) of the same compound?
Answer: The value was 1.496 Fold change and 1.261 Fold change and 1.775 Fold change.

Question: What about the “SOD1 (Fold change vs GAPDH)” value (MKN45 cells [5]; MKN45, mRNA vs Control = 1) of the same compound?
Answer: Its value is 1.684 Fold change and 1.471 Fold change and 1.928 Fold change.

Question: What about the “SOD2 (Fold change vs GAPDH)” value (MKN45 cells [5]; MKN45, mRNA vs Control = 1) of the same compound?
Answer: The value was 5.8142 Fold change and 4.057 Fold change and 3.7805 Fold change.

Question: And the “CDKN1A, Fold change vs GAPDH” value (MKN45 cells [5]; [11])?
Answer: Its value is 4.774 fold change and 4.07 fold change and 5.599 fold change.

Question: What about the “IL-6, Fold change vs GAPDH” value (MKN45 cells [5]; [11]) of the same compound?
Answer: The value was 1.95 fold change and 3.642 fold change and 4.704 fold change.

Question: And the “MMP-1, Fold change vs GAPDH” value (MKN45 cells [5]; [11])?
Answer: The value was 3.347 fold change and 2.194 fold change and 5.104 fold change.

Question: And the “Fold change MAP2K3 vs GAPDH” value (MKN45 cells [5]; MKN45, Fig. 4B, replicate values)?
Answer: The value was 2.858 fold change and 2.103 fold change and 3.884 fold change.

Question: What about the “CDKN1A, Fold change vs GAPDH” value (AGS cells [6]; Fig. 3C, replicate values) of the same compound?
Answer: Its value is 19.195 fold change and 16.0881 fold change and 22.9019 fold change.

Question: What about the “IL-6, Fold change vs GAPDH” value (AGS cells [6]; Fig. 3C, replicate values) of the same compound?
Answer: Its value is 0.7415 fold change and 0.5536 fold change and 0.449 fold change.

Question: What about the “MMP-1, Fold change vs GAPDH” value (AGS cells [6]; Fig. 3C, replicate values) of the same compound?
Answer: Its value is 4.748 fold change and 3.523 fold change and 6.399 fold change.

Question: What about the “Fold change MAP2K3 vs GAPDH” value (AGS cells [6]; Fig. 4B, replicate values) of the same compound?
Answer: The value was 3.776 fold change and 3.2606 fold change and 4.374 fold change.

Question: And the “TNFRSF10D Fold change vs GAPDH” value (AGS cells [6]; Fig. S4C)?
Answer: The value was 10.7682 fold change and 9.829 fold change and 11.7968 fold change.

Question: And the “CAT (Fold change vs GAPDH)” value (AGS cells [6]; mRNA vs Control = 1)?
Answer: Its value is 0.4339 Fold change and 0.4032 Fold change and 0.467 Fold change.

Question: What about the “SOD1 (Fold change vs GAPDH)” value (AGS cells [6]; mRNA vs Control = 1) of the same compound?
Answer: The value was 1.248 Fold change and 1.114 Fold change and 1.397 Fold change.

Question: What about the “SOD2 (Fold change vs GAPDH)” value (AGS cells [6]; mRNA vs Control = 1) of the same compound?
Answer: Its value is 1.83 Fold change and 1.608 Fold change and 2.083 Fold change.

Question: What about the CFUs (PANC1 cells [7]; PANC1, 1 h pre-treatment at IC50, colonies after 10 days) of the same compound?
Answer: The CFUs was 160 and 132 and 144.

Question: What about the CFUs (PANC1 cells [7]; PANC1, 3 h pre-treatment at IC50, colonies after 10 days) of the same compound?
Answer: The CFUs was 20 and 28 and 36.

Question: And the GSH/GSSG (PANC1 cells [8]; PANC1, 3, relative to Control = 1)?
Answer: Its GSH/GSSG is 0.8204 and 0.833 and 0.8843.

Question: And the GSH/GSSG (PANC1 cells [8]; PANC1, 24, relative to Control = 1)?
Answer: The GSH/GSSG was 0.8133 and 0.9393 and 0.9531.

Question: What about the GSH/GSSG (AGS cells [9]; AGS, 3, relative to Control = 1) of the same compound?
Answer: Its GSH/GSSG is 0.992 and 0.9971 and 1.026.

Question: What about the GSH/GSSG (AGS cells [9]; AGS, 24, relative to Control = 1) of the same compound?
Answer: Its GSH/GSSG is 0.8767 and 0.8827 and 0.9433.
